Holding throughout (assay type): cell-based
In one test the target is Mu-type opioid receptor (Homo sapiens, UniProt P35372). Briefly: Displacement of [3H]DAMGO from mu opioid receptor expressed in CHO cells.
Test [1] addresses Kappa-type opioid receptor (Homo sapiens, UniProt P41145). In words: Displacement of [3H]U69593 from kappa opioid receptor expressed in CHO cells. On the technique in general: In a radioligand displacement assay an active substance lowers the binding of a labelled ligand.
In test [2] the target is Delta-type opioid receptor (Homo sapiens, UniProt P41143). In words: Displacement of [3H]DADLE from delta opioid receptor expressed in CHO cells.
Sequence of Delta-type opioid receptor (P41143 whole entry): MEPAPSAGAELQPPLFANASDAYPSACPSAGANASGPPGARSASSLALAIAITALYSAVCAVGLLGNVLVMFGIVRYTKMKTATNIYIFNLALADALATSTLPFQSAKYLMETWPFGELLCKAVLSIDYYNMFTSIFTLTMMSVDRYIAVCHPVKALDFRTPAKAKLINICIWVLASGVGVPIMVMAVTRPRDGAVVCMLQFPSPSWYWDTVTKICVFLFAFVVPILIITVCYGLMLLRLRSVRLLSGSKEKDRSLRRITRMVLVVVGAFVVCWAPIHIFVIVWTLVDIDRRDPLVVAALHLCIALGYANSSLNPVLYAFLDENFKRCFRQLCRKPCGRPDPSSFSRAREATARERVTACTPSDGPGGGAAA

The values that follow come from ChEMBL document CHEMBL1157715, “Probes for narcotic receptor mediated phenomena. 40. N-substituted cis-4a-ethyl-1,2,3,4,4a,9a-hexahydrobenzofuro[2,3-c]pyridin-8-ols” (Bioorg Med Chem, 2010).

Some results are limits rather than exact numbers.

Sequence of Kappa-type opioid receptor (P41145 whole entry): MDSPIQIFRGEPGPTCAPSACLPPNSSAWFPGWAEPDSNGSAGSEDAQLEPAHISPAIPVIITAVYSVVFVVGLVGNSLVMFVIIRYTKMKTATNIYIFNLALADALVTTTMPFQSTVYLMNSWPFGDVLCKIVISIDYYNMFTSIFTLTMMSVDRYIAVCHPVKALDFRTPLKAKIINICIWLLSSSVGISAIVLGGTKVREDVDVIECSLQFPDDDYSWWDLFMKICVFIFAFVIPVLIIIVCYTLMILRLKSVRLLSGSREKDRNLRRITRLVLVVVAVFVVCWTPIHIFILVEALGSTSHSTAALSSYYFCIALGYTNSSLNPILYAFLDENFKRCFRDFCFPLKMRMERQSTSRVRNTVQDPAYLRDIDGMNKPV
Sequence of Mu-type opioid receptor (P35372 whole entry): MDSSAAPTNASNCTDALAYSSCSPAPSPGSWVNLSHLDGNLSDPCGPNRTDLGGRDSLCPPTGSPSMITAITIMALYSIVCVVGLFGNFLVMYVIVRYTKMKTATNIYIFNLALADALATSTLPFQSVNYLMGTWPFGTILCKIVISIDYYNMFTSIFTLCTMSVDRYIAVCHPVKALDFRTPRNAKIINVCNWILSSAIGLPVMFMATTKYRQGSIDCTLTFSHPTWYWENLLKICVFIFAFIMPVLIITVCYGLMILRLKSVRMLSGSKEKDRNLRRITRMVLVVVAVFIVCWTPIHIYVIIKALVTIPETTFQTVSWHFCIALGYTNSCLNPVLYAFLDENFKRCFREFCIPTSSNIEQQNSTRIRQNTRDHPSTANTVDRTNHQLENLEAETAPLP

As to `Oc1ccc2c(c1)C1CCN(CC3CC3)CC1O2` (stereo unspecified), on Mu-type opioid receptor, the Ki was determined as 0.004 µM.
`CN1CC[C@@]2(CCc3ccccc3)c3cccc(O)c3O[C@H]2C1` (racemic): the Ki is 2.88 µM in test [1], > 4.3 µM in test [2] and 0.74 µM at Mu-type opioid receptor.
For the molecule `CC[C@@]12CCN(Cc3ccc(F)cc3)C[C@@H]1Oc1c(O)cccc12` (racemic), the Ki is 3.38 µM in test [1], > 4.5 µM in test [2] and > 2.7 µM on Mu-type opioid receptor.
In the case of `CC[C@@]12CCN(CCc3ccc([N+](=O)[O-])cc3)C[C@@H]1Oc1c(O)cccc12` (racemic), the Ki was 0.72 µM in test [1], 2.26 µM in test [2] and 0.67 µM at Mu-type opioid receptor.
On to `CC[C@@]12CCN(CCc3ccccc3)C[C@@H]1Oc1ccc(O)cc12`, for which the Ki came out at 0.088 µM in test [1], 0.075 µM in test [2] and 0.0007 µM on Mu-type opioid receptor.
As for `CC[C@@]12CCN(CCc3ccc(F)cc3)C[C@@H]1Oc1c(O)cccc12` (racemic), the results for the Ki (in test [1]; in test [2]; at Mu-type opioid receptor) were 0.935 µM, > 4.5 µM and 0.354 µM, respectively.
On to `CC[C@@]12CCN(C)C[C@@H]1Oc1c(O)cccc12` (racemic), for which the results for the Ki (in test [1]; in test [2]; at Mu-type opioid receptor) were > 10 µM, 7.48 µM and 0.795 µM, respectively.
In the case of `CC[C@@]12CCN(CC3CC3)C[C@@H]1Oc1c(O)cccc12` (racemic), the Ki in test [1] came to 10 µM; in test [2] it was 6.15 µM; at Mu-type opioid receptor, 4.67 µM.
On Mu-type opioid receptor, `Oc1ccc2c(c1)C1CCN(CCc3ccccc3)CC1O2` (stereo unspecified) registered a Ki of 0.0009 µM.
For `CC[C@@]12CCN(CCc3ccccc3)C[C@@H]1Oc1c(O)cccc12` (racemic), the figures for the Ki (in test [1]; in test [2]; on Mu-type opioid receptor) were 2.22 µM, 7.21 µM and 1.63 µM, respectively.

Broadly, the Ki is a measure of affinity in units of concentration, obtained from inhibition or displacement. A high value points to weaker binding.
